Test: clinical
Settings: human, in vivo
Text: We claim that these volumes represent the physiological volumes of extracellular fluid compartments that receive the drug with different kinetic rates. Total exclusion of the drug from intracellular fluids is most plausible considering the highly polar and hydrophilic nature of sisomicin. Alternatively, the peripheral compartment could be considered to be interstitial fluid as a different phase of slightly higher drug affinity, where steric hindrance and binding to the negatively charged components of the extracellular matrix retards drug movement. […] The explicit solutions to the two-compartment model as a function of real time provide estimates of drug concentration upon repeated dosing (U.S. patent application Ser. No. 16/992,658). These drug concentrations at momentary distribution equilibrium (teq) can be used to determine the drug's apparent volume of distribution.
Eq. 21, can be used to assess a substance apparent volume of distribution associated with the phase of the central compartment, but only if the central compartment is a single phase. Using eq. 21, Vd,1 was calculated to be equal to 11.78 L. The equilibrium time of intercompartmental drug distribution teq is calculated from eq.
Eur J Clin Pharmacol. 1976; 10: 251-256. […]

Vd: 11.8 L
SMILES: CN[C@@H]1[C@@H](O)[C@@H](O[C@@H]2[C@@H](O)[C@H](O[C@H]3OC(CN)=CC[C@H]3N)[C@@H](N)C[C@H]2N)OC[C@]1(C)O [sisomicin]
